The results in this text go back to US11753407B2, “Compounds for treating spinal muscular atrophy” (PTC Therapeutics, Inc., priority 2012, dated 2023).

Series [1] deals with SMN2 minigene mRNA (SMN2-A minigene) in HEK293H cells. As to the kind of experiment: SMN2 minigene mRNA splicing RT-qPCR assay in cultured cells. The format is cell-based, human. The conditions noted are these: Homo sapiens, HEK293-H; concentration increasing full length SMN2 mRNA 1.5-fold relative to vehicle-treated cells; HEK293H cells with SMN2-A minigene, 24 hours, 7-point concentration data; read-out: EC1.5x for production of full length SMN2 mRNA. An outline of the steps:
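HEK293H cells stably carrying SMN2-A minigene treated with compounds (7-point, 3.16-fold dilutions, duplicates) for 24 h at 37 °C. Full-length exon 7-containing minigene mRNA measured by multiplex RT-qPCR with GAPDH, normalized and expressed relative to vehicle (modified ΔΔCt); EC1.5× is concentration giving 1.5-fold increase.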
For orientation: In qPCR the cycle at which signal appears reflects the starting amount.

Series [2] relates to Smn protein in SMA patient fibroblast cells (GM03813). As to the kind of experiment: Smn protein assay in cultured cells (SMN HTRF). Format: cell-based, human. The conditions noted are these: SMA patient fibroblast cells, 48 hours; for EC1.5x for Smn protein expression: 7-point concentration curve, SMN HTRF, concentration producing 1.5 times Smn protein vs DMSO vehicle control; for maximum fold (Fold) increase of Smn protein: 7-point concentration data, fold relative to vehicle control. An outline of the steps:
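SMA patient fibroblasts (5,000/well, DMEM-10% FBS) treated 48 h at 37° C with 7-point, 3.16-fold compound series in triplicate; lysates read by SMN HTRF (665/620 nm ratio). Fold Smn increase over DMSO vehicle derived; EC1.5× is concentration giving 1.5-fold Smn, with maximum fold also reported.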
In general terms: TR-FRET usually uses a lanthanide donor and a delayed reading to cut background.

Turning to `CCN1CCN(c2cc(C)c3nc(-c4cc5c(C)nc(C)cn5n4)cc(=O)n3c2)C[C@H]1C` [Compound 511, 2-(4,6-dimethylpyrazolo[1,5-a]pyrazin-2-yl)-7-[(3R)-4-ethyl-3-methylpiperazin-1-yl]-9-methyl-4H-pyrido[1,2-a]pyrimidin-4-one], the melting point was in the range of 240 to 245 °C. Further, in series [1], the EC (1.5-fold increase) was less than 0.1 µM. For the same molecule, in series [2], the “EC1.5x for Smn protein expression” value is “** (an EC1.5× between >1 μM and ≤3 μM is indicated by two stars (**))”; the “maximum fold (Fold) increase of Smn protein” value (shortened to “maximum fold (Fold) increase”) is “**** (a fold increase between >1.5 and ≤1.65 is indicated by four stars (****))”.
Take `Cc1nc2ccc(-c3cc(=O)n4cc(N5CCCNCC5)ccc4n3)cc2o1` [Compound 195, 7-(1,4-diazepan-1-yl)-2-(2-methyl-1,3-benzoxazol-6-yl)-4H-pyrido[1,2-a]pyrimidin-4-one]: the melting point lay in the range of 134 to 137 °C. For the same molecule, the EC (1.5-fold increase) in series [1] was less than 0.1 µM. In series [2], the “EC1.5x for Smn protein expression” value is “*** (an EC1.5× between >0.3 μM and ≤1 μM is indicated by three stars (***))”; the “maximum fold (Fold) increase” value is “**** (a fold increase between >1.5 and ≤1.65 is indicated by four stars (****))”.
Turning to `CCN1CCC(c2cn3c(=O)cc(-c4cc(C)c5nc(C)cn5c4)nc3cn2)CC1` [Compound 593, 2-(2,8-dimethylimidazo[1,2-a]pyridin-6-yl)-7-(1-ethylpiperidin-4-yl)-4H-pyrazino[1,2-a]pyrimidin-4-one], the melting point lay within 242 to 244 °C. The EC (1.5-fold increase) in series [1] is less than 0.1 µM. Further, in series [2], the “EC1.5x for Smn protein expression” value is given as “**** (an EC1.5x≤0.3 μM is indicated by four stars (****))” and the “maximum fold (Fold) increase” value is listed as “***** (a fold increase >1.65 is indicated by five stars (*****))”.
As for `Cc1nc2ccc(-c3cc(=O)n4cc(N5CCNC(C)(C)C5)ccc4n3)cc2s1` [Compound 283, 7-(3,3-dimethylpiperazin-1-yl)-2-(2-methyl-1,3-benzothiazol-6-yl)-4H-pyrido[1,2-a]pyrimidin-4-one], the melting point fell in the range of 200 to 202 °C. In series [1], the EC (1.5-fold increase) is less than 0.1 µM. In series [2], the “EC1.5x for Smn protein expression” value is reported as “**** (an EC1.5x≤0.3 μM is indicated by four stars (****))”; the “maximum fold (Fold) increase” value is “**** (a fold increase between >1.5 and ≤1.65 is indicated by four stars (****))”.
On to `Cn1ncc2cc(-c3cc(=O)n4cc(N5CCNCC5)ccc4n3)ccc21` [Compound 490, 2-(1-methyl-1H-indazol-5-yl)-7-(piperazin-1-yl)-4H-pyrido[1,2-a]pyrimidin-4-one], for which the melting point was in the range of 206 to 208 °C. Besides, the EC (1.5-fold increase) in series [1] is less than 0.1 µM. For the same molecule, in series [2], the “EC1.5x for Smn protein expression” value is “*** (an EC1.5× between >0.3 μM and ≤1 μM is indicated by three stars (***))”; the “maximum fold (Fold) increase” value was “***** (a fold increase >1.65 is indicated by five stars (*****))”.
Consider `Cc1cn2cc(-c3cc(=O)n4cc(N5CCCN(C)CC5)ccc4n3)ccc2n1` [Compound 169, 7-(4-methyl-1,4-diazepan-1-yl)-2-(2-methylimidazo[1,2-a]pyridin-6-yl)-4H-pyrido[1,2-a]pyrimidin-4-one], for which the melting point was 208 to 213 °C. Besides, in series [1], the EC (1.5-fold increase) is less than 0.1 µM. Further, in series [2], the “EC1.5x for Smn protein expression” value is on record as “**** (an EC1.5x≤0.3 μM is indicated by four stars (****))”; the “maximum fold (Fold) increase” value is “**** (a fold increase between >1.5 and ≤1.65 is indicated by four stars (****))”.
With `Cc1cn2nc(-c3cc(=O)n4cc(C5CCN(CCF)CC5)ccc4n3)cc2c(C)n1` [Cpd 662, 2-(4,6-dimethylpyrazolo[1,5-a]pyrazin-2-yl)-7-[1-(2-fluoroethyl)piperidin-4-yl]-4H-pyrido[1,2-a]pyrimidin-4-one], the melting point lay within 197 to 199 °C. Moreover, the EC (1.5-fold increase) in series [1] was less than 0.1 µM. Moreover, in series [2], the “EC1.5x for Smn protein expression” value was “**** (an EC1.5x≤0.3 μM is indicated by four stars (****))” and the “maximum fold (Fold) increase” value is on record as “***** (a fold increase >1.65 is indicated by five stars (*****))”.
As for `Cn1ccc2cc(-c3cc(=O)n4cc(N5CCNCC5)ccc4n3)cnc21` [Compound 129, 2-(1-methyl-1H-pyrrolo[2,3-b]pyridin-5-yl)-7-(piperazin-1-yl)-4H-pyrido[1,2-a]pyrimidin-4-one], the melting point lay in the range of 230 to 233 °C. Moreover, in series [1], the EC (1.5-fold increase) lay in the range of 0.3 to 1 µM. Moreover, in series [2], the “EC1.5x for Smn protein expression” value is “* (An EC1.5× for Smn protein expression between >3 μM and ≤10 μM is indicated by one star (*))”; the “maximum fold (Fold) increase” value is “*** (a fold increase between >1.35 and ≤1.5 is indicated by three stars (***))”.
`CN(C)c1ccc(-c2cc(=O)n3cc(N4CCNCC4)cc(F)c3n2)cc1` [Compound 49, 2-[4-(dimethylamino)phenyl]-9-fluoro-7-(piperazin-1-yl)-4H-pyrido[1,2-a]pyrimidin-4-one] registered a melting point of 216 to 218 °C. Moreover, in series [1], the EC (1.5-fold increase) is 3 to 30 µM. Besides, the “maximum fold (Fold) increase” value in series [2] was “* (A maximum fold increase of ≤1.2 is indicated by one star (*))”.
For `Cc1cn2cc(-c3cc(=O)n4cc(N5CCN(C6CCC6)[C@@H](C)C5)ccc4n3)cc(F)c2n1` [Compound 543, 7-[(3S)-4-cyclobutyl-3-methylpiperazin-1-yl]-2-(8-fluoro-2-methylimidazo[1,2-a]pyridin-6-yl)-4H-pyrido[1,2-a]pyrimidin-4-one], the melting point lay in the range of 264 to 267 °C. Further, in series [1], the EC (1.5-fold increase) was less than 0.1 µM. Further, in series [2], the “EC1.5x for Smn protein expression” value was “**** (an EC1.5x≤0.3 μM is indicated by four stars (****))” and the “maximum fold (Fold) increase” value is “***** (a fold increase >1.65 is indicated by five stars (*****))”.
As to `CCc1nc(C)cn2nc(-c3cc(=O)n4cc(N5CCC(N(C)C)CC5)ccc4n3)cc12` [Compound 550, 7-[4-(dimethylamino)piperidin-1-yl]-2-(4-ethyl-6-methylpyrazolo[1,5-a]pyrazin-2-yl)-4H-pyrido[1,2-a]pyrimidin-4-one], the melting point was in the range of 258 to 260 °C. For the same molecule, the EC (1.5-fold increase) in series [1] is less than 0.1 µM. In series [2], the “EC1.5x for Smn protein expression” value was “**** (an EC1.5x≤0.3 μM is indicated by four stars (****))” and the “maximum fold (Fold) increase” value is reported as “***** (a fold increase >1.65 is indicated by five stars (*****))”.
For `CCc1cc(-c2cc(=O)n3cc(C4CCN(C)CC4)ccc3n2)cn2cc(C)nc12` [Compound 697, 2-(8-ethyl-2-methylimidazo[1,2-a]pyridin-6-yl)-7-(1-methylpiperidin-4-yl)-4H-pyrido[1,2-a]pyrimidin-4-one], the melting point lay in the range of 214 to 218 °C. The EC (1.5-fold increase) in series [1] is less than 0.1 µM. In addition, in series [2], the “EC1.5x for Smn protein expression” value is given as “**** (an EC1.5x≤0.3 μM is indicated by four stars (****))” and the “maximum fold (Fold) increase” value is given as “***** (a fold increase >1.65 is indicated by five stars (*****))”.
Consider `Cc1nc2ccc(-c3cc(=O)n4nc(C5CCN(C)CC5)ccc4n3)cc2o1` [Compound 500, 2-(2-methyl-1,3-benzoxazol-6-yl)-7-(1-methylpiperidin-4-yl)-4H-pyrimido[1,2-b]pyridazin-4-one], for which the melting point fell in the range of 272 to 275 °C. Besides, the EC (1.5-fold increase) in series [1] lay in the range of 0.1 to 0.3 µM. In series [2], the “EC1.5x for Smn protein expression” value was “*** (an EC1.5× between >0.3 μM and ≤1 μM is indicated by three stars (***))”; the “maximum fold (Fold) increase” value is “***** (a fold increase >1.65 is indicated by five stars (*****))”.
In turn, `COc1ccc(-c2cc(=O)n3cc(N4CCC(N)CC4)ccc3n2)cc1OC` [Compound 127, 7-(4-aminopiperidin-1-yl)-2-(3,4-dimethoxyphenyl)-4H-pyrido[1,2-a]pyrimidin-4-one] yielded a melting point of 182 to 185 °C. Moreover, the EC (1.5-fold increase) in series [1] fell in the range of 0.3 to 1 µM. Also, in series [2], the “EC1.5x for Smn protein expression” value is “* (An EC1.5× for Smn protein expression between >3 μM and ≤10 μM is indicated by one star (*))”; the “maximum fold (Fold) increase” value was “*** (a fold increase between >1.35 and ≤1.5 is indicated by three stars (***))”.
`O=c1cc(-c2cnc3[nH]ccc3c2)nc2ccc(N3CCNCC3)cn12` [Cpd 128, 7-(piperazin-1-yl)-2-(1H-pyrrolo[2,3-b]pyridin-5-yl)-4H-pyrido[1,2-a]pyrimidin-4-one] gave a melting point of 252 to 255 °C. For the same molecule, in series [1], the EC (1.5-fold increase) was in the range of 0.3 to 1 µM. In addition, the “maximum fold (Fold) increase” value in series [2] was “*** (a fold increase between >1.35 and ≤1.5 is indicated by three stars (***))”.
In turn, `CCCN1CCC(c2ccc3nc(-c4ccc5nc(C)cn5c4)cc(=O)n3c2)CC1` [Compound 470, 2-(2-methylimidazo[1,2-a]pyridin-6-yl)-7-(1-propylpiperidin-4-yl)-4H-pyrido[1,2-a]pyrimidin-4-one] had a melting point of 159 to 161 °C. Moreover, the EC (1.5-fold increase) in series [1] was less than 0.1 µM. Besides, in series [2], the “EC1.5x for Smn protein expression” value is “**** (an EC1.5x≤0.3 μM is indicated by four stars (****))”; the “maximum fold (Fold) increase” value is “**** (a fold increase between >1.5 and ≤1.65 is indicated by four stars (****))”.

One may read the melting point as the temperature, or range, at which the solid turns liquid.
